Measurements as given in ChEMBL document CHEMBL4257528, “Molecular insights into the interaction of Hsp90 with allosteric inhibitors targeting the C-terminal domain” (Medchemcomm, 2018).
Active and inactive are the calls of the source. No cut-off for these calls is given here.

Tests used:
[1] = target: Heat shock protein HSP 90-alpha (Homo sapiens) (UniProt P07900); experiment: Binding affinity to 1H/13C-Ile HSP90alpha CTD (unknown origin) at 0.9 mM by Methyl-TROSY […] spectrum analysis
[2] = target: Heat shock protein HSP 90-alpha (Homo sapiens) (UniProt P07900); experiment: Binding affinity to N-terminal His6-tagged HSP90alpha CTD (unknown origin) expressed in Escherichia coli BL21(DE3) at compound to protein ratio of 164 by STD-NMR method
[3] = Solubility of the compound in buffer solution; assay type: physicochemical
[4] = target: Heat shock protein HSP 90-alpha (Homo sapiens) (UniProt P07900); experiment: Binding affinity to 1H/13C-Ile HSP90alpha CTD (unknown origin) at 2.5 mM by Methyl-TROSY […] spectrum analysis
[5] = target: Heat shock protein HSP 90-alpha (Homo sapiens) (UniProt P07900); experiment: Binding affinity to 1H/13C-Ile HSP90alpha CTD (unknown origin) at 1.4 mM by Methyl-TROSY […] spectrum analysis

Activity [1] | Activity [2] | solubility [3] | Activity [5] | Compound | Activity [4]
Active | Active | Soluble | – | CO[C@@H]1[C@@H](O)[C@@H](O)[C@H](Oc2ccc3cc(NC(C)=O)c(=O)oc3c2C)OC1(C)C | –
– | – | – | – | Nc1ncnc2c1ncn2[C@@H]1O[C@H](COP(=O)(O)OP(=O)(O)NP(=O)(O)O)[C@@H](O)[C@H]1O | Active
– | Active | Soluble | Active | CO[C@@H]1[C@@H](O)[C@@H](O)[C@H](Oc2ccc(CCNC(C)=O)c(-c3cccc(F)c3)c2)OC1(C)C [CEMDOMESPIB] | –
